Some test systems named below: U251 CNS; MALME-3M melanoma; UO-31 renal; NCI-H226 lung; BT-549 breast; OVCAR-8 ovarian; TK-10 renal; SW-620 colon; SF-539 CNS; EKVX NSCLC.
What all share (assay): NCI tumour cell line growth inhibition, 48 h

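Method: 48-hour compound exposure of cells in 96-well plates, five concentrations, linear interpolation of endpoints. GI50 = concentration required for 50% inhibition of growth. Definition used: TGI = concentration required for complete inhibition of growth.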

As for `OCCNc1nc(Nc2ccc(Cl)c(Cl)c2)nc2ccccc12`, the GI50 in the test with U251 CNS is 3.7 µM; in the test with MALME-3M melanoma it was 4.97 µM; with UO-31 renal it was 4.23 µM; with NCI-H226 lung, 12.9 µM; in the test with BT-549 breast, 16 µM; in the test on OVCAR-8 ovarian, 4.79 µM. The GI50 was 14.3 µM in the test with TK-10 renal, 4.02 µM in the test with SW-620 colon and 5.68 µM in the test with SF-539 CNS. Moreover, the TGI in the test with U251 CNS was found to be 15.5 µM; with MALME-3M melanoma it was 17.5 µM; with UO-31 renal it was 17.9 µM; in the test on NCI-H226 lung, 34.2 µM; with BT-549 breast it was 29.8 µM; with OVCAR-8 ovarian it was 17.6 µM. The values for the TGI in the test on TK-10 renal, in the test on SW-620 colon and with SF-539 CNS were 27.9 µM, 16.2 µM and 20.6 µM, respectively.
In the case of `CCOC(=O)C1=C(C)N(Cc2ccc(Cl)cc2Cl)C2(O)C=CC(=O)C3=C(O)c4ccccc4C(=O)C312` (centres undefined), the GI50 with U251 CNS is 3.53 µM; in the test on EKVX NSCLC, 10.6 µM; with NCI-H226 lung, 3.77 µM; with BT-549 breast, 21.6 µM; in the test on OVCAR-8 ovarian it was 7.17 µM; with TK-10 renal, 3.78 µM. For the same compound, the GI50 in the test with SW-620 colon was 4.74 µM. Besides, the TGI with U251 CNS is 15.8 µM; in the test with EKVX NSCLC it was 47.8 µM; in the test on NCI-H226 lung it was 27.8 µM; in the test with BT-549 breast it was more than 100 µM; with OVCAR-8 ovarian, 91.2 µM; in the test on TK-10 renal it was 10.8 µM. In the test with SW-620 colon, the TGI was more than 100 µM.
As to `CC(C(N)C(=O)NC(C(=O)O)C1OC(n2ccc(=O)[nH]c2=O)C(O)C1O)C(O)c1ccc(O)cn1` (centres undefined), the TGI in the test on U251 CNS, in the test on UO-31 renal, with EKVX NSCLC, with BT-549 breast, in the test with OVCAR-8 ovarian and in the test on TK-10 renal was more than 100 µM throughout. Further, the TGI in the test with SW-620 colon and in the test on SF-539 CNS was more than 100 µM in each case.
With `C/C(O)=C(\C#N)C(=O)Nc1ccc(C(F)(F)F)cc1`, the GI50 in the test with U251 CNS was 5.34 µM; in the test with MALME-3M melanoma it was 62.8 µM; in the test on UO-31 renal, 18.1 µM; in the test with NCI-H226 lung, 98 µM; with BT-549 breast, 51.7 µM; in the test with OVCAR-8 ovarian, 13.5 µM. Further, the values for the GI50 in the test with TK-10 renal, with SW-620 colon and in the test with SF-539 CNS were more than 100 µM, 36.4 µM and 16 µM, respectively. In addition, the TGI in the test with U251 CNS, in the test on MALME-3M melanoma, with UO-31 renal, in the test with NCI-H226 lung, in the test with BT-549 breast and in the test on OVCAR-8 ovarian was more than 100 µM in each case. The TGI in the test with TK-10 renal, in the test with SW-620 colon and with SF-539 CNS was more than 100 µM each time.
For the compound `O=NNc1ccc(Sc2ccc(NN=O)cn2)nc1`, the TGI in the test on U251 CNS, with UO-31 renal, with EKVX NSCLC, in the test on NCI-H226 lung, in the test on BT-549 breast and in the test with OVCAR-8 ovarian was more than 100 µM in each case. Moreover, the TGI in the test on TK-10 renal, with SW-620 colon and in the test with SF-539 CNS was more than 100 µM in each case.
As for `NS(=O)(=O)c1ccc(N(/C=C/C(=O)C(F)(F)F)Cc2ccc(Cl)cc2)cc1`, the GI50 in the test with U251 CNS is 26.5 µM; in the test on UO-31 renal it was 15.8 µM; in the test with EKVX NSCLC, 22.5 µM; with BT-549 breast, 23.6 µM; in the test with OVCAR-8 ovarian, 24.3 µM; in the test on TK-10 renal, 23.5 µM. The GI50 with SW-620 colon is 30.5 µM; in the test with SF-539 CNS, 17.4 µM. For the same compound, the TGI turned out to be 75.8 µM in the test on U251 CNS; 44.6 µM with UO-31 renal; 49.6 µM in the test with EKVX NSCLC; 62.6 µM in the test with BT-549 breast; 63.1 µM in the test on OVCAR-8 ovarian; 55.8 µM with TK-10 renal. For the same compound, the TGI with SW-620 colon was more than 100 µM; in the test on SF-539 CNS, 34 µM.
In the case of `O=C1c2ccccc2-c2c1c1c(O)cccc1n2Cc1ccccn1`, the GI50 in the test with U251 CNS is 94.4 µM; in the test with UO-31 renal, more than 100 µM; in the test on EKVX NSCLC it was 17.6 µM; in the test on NCI-H226 lung it was 12.8 µM; with BT-549 breast, 26.2 µM; in the test on OVCAR-8 ovarian, 74 µM. The GI50 in the test with TK-10 renal was 28.9 µM; with SW-620 colon, 42 µM; with SF-539 CNS, 17 µM. For the same compound, the TGI with U251 CNS was more than 100 µM; in the test on UO-31 renal it was more than 100 µM; with EKVX NSCLC, 70 µM; in the test with NCI-H226 lung it was 65.3 µM; in the test with BT-549 breast it was more than 100 µM; with OVCAR-8 ovarian, more than 100 µM. For the same compound, the TGI was 93.2 µM in the test on TK-10 renal, more than 100 µM with SW-620 colon and 44.1 µM in the test on SF-539 CNS.
With `N#Cc1cc(S(=O)(=O)Nc2nnc(-c3ccccc3)c(-c3ccccc3)n2)c(SCc2ccccc2)cc1Cl`, the GI50 with U251 CNS was 17.8 µM; in the test with UO-31 renal it was 26.8 µM; in the test with EKVX NSCLC it was 22.8 µM; with NCI-H226 lung, 27.6 µM; with BT-549 breast it was 30.9 µM; in the test on OVCAR-8 ovarian it was 28.5 µM. For the same compound, the GI50 in the test on TK-10 renal was 22.9 µM; in the test on SW-620 colon, 35.5 µM; in the test with SF-539 CNS it was 30.2 µM. Besides, the TGI came to 33.1 µM in the test on U251 CNS; 71.3 µM in the test on UO-31 renal; 48.7 µM in the test with EKVX NSCLC; 70.7 µM with NCI-H226 lung; 89.6 µM in the test on BT-549 breast; 56.7 µM in the test on OVCAR-8 ovarian. Moreover, the TGI in the test on TK-10 renal is 46.2 µM; with SW-620 colon, more than 100 µM; in the test with SF-539 CNS it was 62.4 µM.

The record behind these values is PubChem BioAssay (NCI).
